Measurements reported in PMC4680847 (Structure (London, England : 1993), 2015).
Positions count from the first letter of the chain named. Read-outs that look alike come from different tables or passages of the source.

What was measured:
Assay type in all cases: binding
RNase A [1] = target: T1, RNase A (Bos taurus, UniProt P61823, A135G); experiment: crystal structure
T1 sequence (P61823 27-150 A135G): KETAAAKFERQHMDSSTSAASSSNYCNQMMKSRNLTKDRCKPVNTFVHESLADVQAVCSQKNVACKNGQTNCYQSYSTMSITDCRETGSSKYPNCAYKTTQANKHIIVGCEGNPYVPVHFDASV

RNase A [2] = target: T2, RNase A (Bos taurus, UniProt P61823); experiment: ITC
T2 sequence (P61823 27-150): T1 sequence (P61823 27-150 A135G) with G109A

RNase A [3] = target: T1, RNase A; experiment: crystal structure; remark: listed apart in the source

SMILES | Kd (RNase A [1]) [µM] | Kd (RNase A [2]) [µM] | Kd (RNase A [3]) [µM]
Nc1ncnc2c1ncn2[C@@H]1O[C@H](COP(=O)(O)O)[C@@H](O)[C@H]1O [5′-AMP] | 440 ± 26 | 105 ± 1 | 
O=c1ccn([C@@H]2O[C@H](CO)[C@@H](OP(=O)(O)O)[C@H]2O)c(=O)[nH]1 [3′-UMP] |  | 67 ± 6 | 50 ± 8
